Assay results: patent US7413894B2, “TAG-1 and TAG-2 proteins and uses thereof” (University of Virginia Patent Foundation, priority 2003, dated 2008)

Legend:
[1] = biological target: T1, class I MHC molecule, HLA-A3 (Homo sapiens, UniProt P04439); assay: Isolation of HLA-A3 associated peptides (immunoaffinity purification from VMM18 tumor cells); format: binding
T1 construct: endogenous in cells; host or cells: VMM18 melanoma tumor cells
Description: Immunoaffinity purification of class I MHC molecules from aliquots of 6-8×10^10 VMM18 tumor cells was performed as described (Hogan et al., 1998, Cancer Res 58, 5144-5150), except that the HLA-A3-specific monoclonal antibody GAP-A3, bound to protein A-Sepharose, was used to isolate the HLA-A3 molecules.
Peptide extracts were fractionated by RP-HPLC using an Applied Biosystems model 140B system. The extracts were concentrated by vacuum centrifugation and injected onto a Higgins (Mountain View, Calif.) C18 HAISIL column (2.1 mm×4 cm, 300 Å, 5 μm). The peptides were eluted with a gradient of acetonitrile/0.085% trifluoroacetic acid (TFA)* in 0.1% TFA/water, with the concentration of acetonitrile increasing from 0 to 9% (0 to 5 min), 9 to 36% (5 to 55 min), and 36 to 60% (55 to 62 min). Second dimension fractionations of selected first dimension (TFA) fractions were accomplished using the same gradient but with the substitution of heptafluorobutyric acid (HFBA) for TFA. A third dimension of RP-HPLC was achieved using an Eldex (Napa, Calif.) MicroPro pump, a homemade C18 microcapillary column and an Applied Biosystems model 785A UV absorbance detector. The column was made by packing a 27-cm bed of 10-μm C18 particles in a section of 285 μm o.d.×75 μm i.d. fused silica. […] In all RP-HPLC experiments, peptides were detected by monitoring UV absorbance at 214 nm.

[2] = test system: C1R-A3 targets for lysis by VMM18 CTL; assay: CTL epitope reconstitution assay (four-hour 51Cr-release); format: cell-based; settings: active at concentrations as low as
Description: VMM18-specific CTL have been described previously (Skipper et al., 1996, J Immunol 157, 5027-5033). CTL were expanded in bulk culture using anti-CD3 antibody (Greenberg and Cheever, 1985, Surv Immunol Res 4, 283-296) and cryopreserved in aliquots of 1-5×10^7 cells for use in epitope reconstitution assays.
Aliquots of each RP-HPLC fraction were tested for the presence of peptides that could sensitize C1R-A3 targets for lysis by VMM18 CTL in standard four-hour 51Cr-release assays as previously described (Hogan et al., 1998, Cancer Res 58, 5144-5150).

T1 sequence (P04439 25-365): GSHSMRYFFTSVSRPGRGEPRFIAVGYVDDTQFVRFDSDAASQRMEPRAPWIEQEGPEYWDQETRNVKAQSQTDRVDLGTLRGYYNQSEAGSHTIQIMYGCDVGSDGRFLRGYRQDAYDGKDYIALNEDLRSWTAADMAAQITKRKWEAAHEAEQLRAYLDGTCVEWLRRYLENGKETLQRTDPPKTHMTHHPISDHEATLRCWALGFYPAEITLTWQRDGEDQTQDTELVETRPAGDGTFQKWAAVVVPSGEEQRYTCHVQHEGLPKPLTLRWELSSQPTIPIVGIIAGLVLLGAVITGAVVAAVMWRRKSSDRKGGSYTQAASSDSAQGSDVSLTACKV
T1 sequence (P61769 21-119 partner): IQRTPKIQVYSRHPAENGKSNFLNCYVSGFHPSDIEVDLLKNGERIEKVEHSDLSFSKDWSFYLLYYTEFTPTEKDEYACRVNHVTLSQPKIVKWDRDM

Sequence	binding to HLA-A3 [1]	concentration at which the synthetic peptide is active in sensitizing C1R-A3 targets for lysis by VMM18 CTL [2] [pM]
RLSNRLLLR (listed as Homo sapiens)	binds to the class I MHC molecule, HLA-A3	≤ 10
SQNFPGSQK (listed as Homo sapiens)		≤ 10
